In patent US6599283B1, “Method of preventing reperfusion injury” (priority 2001, dated 2003):

Columns and labels:
[1] = test system: AMI patients undergoing primary PTCA; assay: Metabolic data: creatine kinase (CK) and CK-MB; assay type: in vivo, human; details: mean ± SD
Description: (§1) Fifty four AMI patients undergoing primary PTCA were randomized to intracoronary adenosine or saline. The 2 groups were similar for age, sex, and infarct location. Patients referred for PTCA within 3 hours from the onset of AMI were considered for the study. Patients underwent diagnostic coronary angiography. If the culprit lesion was suitable for PTCA and presented with a TIMI flow from 0 to 2, the patient was included in the study and randomized after informed consent had been obtained. Patients presenting with TIMI 3 flow were diagnosed as having spontaneous reperfusion and were not included in the study.
After left and right coronary arteriography by the femoral approach, a temporary pacing wire was advanced into the right ventricle and connected with a pacemaker left on demand at 60 bpm. The obstruction of the infarct-related artery was crossed with a 0.014-in guidewire, and an over-the-wire balloon catheter was positioned at the level of the obstruction. The wire was pulled out, and diluted contrast was injected through the central lumen of the catheter to confirm positioning of the catheter tip downstream of the obstruction and to assess patency of the distal vessel. […] The guidewire was then readvanced into the distal vessel, and the balloon was deflated to initiate reperfusion of the ischemic territory. […]

[2] = test system: AMI patients undergoing primary PTCA; assay: Clinical events / clinical course in hospital after primary PTCA; assay type: in vivo, human
Description: as §1
(§2) After left and right coronary arteriography by the femoral approach, a temporary pacing wire was advanced into the right ventricle and connected with a pacemaker left on demand at 60 bpm. The obstruction of the infarct-related artery was crossed with a 0.014-in guidewire, and an over-the-wire balloon catheter was positioned at the level of the obstruction. The wire was pulled out, and diluted contrast was injected through the central lumen of the catheter to confirm positioning of the catheter tip downstream of the obstruction and to assess patency of the distal vessel. The balloon was inflated, and either adenosine (4 mg in 2 mL saline) or saline (2 mL) was hand-injected into the distal vascular bed in a random fashion. The rate of injection was such as to complete treatment in 1 minute. The guidewire was then readvanced into the distal vessel, and the balloon was deflated to initiate reperfusion of the ischemic territory. The dilatation procedure was completed according to standard technique. Stenting of the dilated coronary segment was performed only for suboptimal balloon results or flow-limiting dissections. […] The final angiogram was then obtained, and the patient was transferred to the intensive coronary care unit. If symptoms and/or ECG changes consistent with vessel reclosure occurred during this interval, coronary angiography was performed immediately, and therapeutic measures were applied. The dilation procedure was limited to the culprit lesion in all patients.
(§3) The primary end points of this study were feasibility and safety of intracoronary adenosine administration in the setting of primary PTCA and its effect on coronary blood flow. As secondary end points, indexes of myocardial damage, including left ventricular regional function, Q-wave MI, recurrence of angina, nonfatal MI, heart failure, and cardiac death were evaluated.
Physicians in charge of the patients in the intensive coronary care unit were informed of the angiographic results of the PTCA but were blinded to the intracoronary treatment administered during the procedure.

left ventricle = assay: Left ventricular regional function by 2D echocardiography; assay type: in vivo, human; details: echocardiogram after 1 week vs admission
Description: as §1, §2
Left ventricular function was evaluated by 2D echocardiography within 24 hours from admission and after 1 week. Echocardiography was performed with the patient lying supine with a 2.5-MHz transducer fitted to a dedicated system (Hewlett-Packard Sonos 1500). Images were recorded on S-VHS tapes and analyzed offline by 2 experienced observers blinded to the angiographic data. Four views were used: the parasternal long- and short-axis (at the level of the papillary muscle) and apical 2- and 4-chamber views. The left ventricle was divided into 16 segments. In each segment, wall motion was graded as normal, hypokinetic, akinetic, or dyskinetic. Segmental motion at admission was compared with segmental motion at 1 week to detect changes of regional function.

[3] = test system: AMI patients undergoing primary PTCA; details: in vivo
Description: as §1
After left and right coronary arteriography by the femoral approach, a temporary pacing wire was advanced into the right ventricle and connected with a pacemaker left on demand at 60 bpm. […] The guidewire was then readvanced into the distal vessel, and the balloon was deflated to initiate reperfusion of the ischemic territory. […]
as §3

infarct-related artery = assay: Angiographic analysis (residual stenosis, TIMI flow, no-reflow) after primary PTCA; assay type: in vivo, human
Description: as §1
After left and right coronary arteriography by the femoral approach, a temporary pacing wire was advanced into the right ventricle and connected with a pacemaker left on demand at 60 bpm. The obstruction of the infarct-related artery was crossed with a 0.014-in guidewire, and an over-the-wire balloon catheter was positioned at the level of the obstruction. The wire was pulled out, and diluted contrast was injected through the central lumen of the catheter to confirm positioning of the catheter tip downstream of the obstruction and to assess patency of the distal vessel. The balloon was inflated, and either adenosine (4 mg in 2 mL saline) or saline (2 mL) was hand-injected into the distal vascular bed in a random fashion. The rate of injection was such as to complete treatment in 1 minute. The guidewire was then readvanced into the distal vessel, and the balloon was deflated to initiate reperfusion of the ischemic territory. The dilatation procedure was completed according to standard technique. Stenting of the dilated coronary segment was performed only for suboptimal balloon results or flow-limiting dissections. […]
The angiograms were reread as a single group, in chronological sequence, by observers who had not participated in the invasive procedure and were blinded to the treatment received. […] Diameter stenosis was measured by an automatic edge-detection system (Mipron, Kontron). […]

[4] = intracoronary adenosine 4 mg in 2 mL saline, n = 27

Nc1ncnc2c1ncn2[C@@H]1O[C@H](CO)[C@@H](O)[C@H]1O [Adenosine, adenosine]
Peak CK [1]: 1994±1782 U/L
Peak CK-MB [1]: 156±142 UAL
Length of hospital stay ([2]; hospital stay): 9.1 ± 0.8 days
Recurrent angina and/or ischemia ([2]; intracoronary adenosine 4 mg in 2 mL saline into distal vascular bed before balloon deflation, n = 27): 3(11) number (%) of patients
Cardiac death [2, 4]: 0(0) number (%) of patients
Cumulative clinical end points (recurrent angina and/or ischemia, non-fatal AMI, heart failure, cardiac death) [2, 4]: 5(18) number (%) of patients
Heart failure [2, 4]: 2(7) number (%) of patients
Nonfatal AMI [2, 4]: 0(0) number (%) of patients
Clinical diagnosis of heart failure ([2]; n = 27): Two
Composite end point of recurrent angina, nonfatal MI, heart failure, and cardiac death ([2]; n = 27): 5 patients
Deaths in hospital ([2]; n = 27): No deaths
Developed a Q-wave ML ([2]; n = 27): Sixteen
Recurrence of angina ([2]; n = 27): Three
Regional wall motion unchanged (left ventricle): 38 segments
Worsening of wall motion, share of segments (left ventricle): 2%
Wall motion improved, share of initially dyssynergic segments (left ventricle; 114 dyssynergic segments): 64%
Worsening of wall motion (left ventricle; 114 dyssynergic segments): 3 segments
Wall motion improved, initially dyssynergic segments (left ventricle; 114 dyssynergic segments, 23 patients): 73 segments
Bradyarrhythmias or tachyarrhythmias associated with protocol [3]: No bradyarrhythmias or tachyarrhythmias
Residual diameter stenosis by quantitative coronary arteriography (infarct-related artery; after PTCA, mean ± SD): 27.8±9.5%
Flow in the infarct-related artery (TIMI grade) (infarct-related artery; at the end of the dilation procedure): TIMI 3 in all adenosine patients
No-reflow phenomenon (drop of ≧1 TIMI grades in final angiogram relative to post-PTCA angiogram) (infarct-related artery; final angiogram 30 minutes after dilation, n = 27): 1 patient
